Assay results as given in US20080004290A1, “Anti-Cancer Agents” (THE UNIVERSITY OF QUEENSLAND, priority 2003, published 2008).

Assays:
Type in all cases: cell-based, human
[1] = system: H520 cells; experiment: Cell survival assay (SRB); details: H520; read-out: Cytoselectivities (nM) H520
Protocol: (§1) Cell Lines and Culture Medium. All cell lines used in this study have been described previously (Parsons et al., 1986; Todaro et al., 1980; Glenn et al., 2004). All cell lines were cultured in 10% heat-inactivated foetal calf serum (CSL, Australia) in RPMI 1640 medium supplemented with 100 U/mL penicillin, 100 μg/mL streptomycin, and 3 mM HEPES at 5% CO2, 99% humidity at 37° C. Primary human fibroblasts were obtained from neonatal foreskins and cultured in the above medium. Routine mycoplasma tests were performed using Hoechst stain^i and were always negative.
(§2) Cell Survival Assay. Cells were plated into 96-well microtitre plates at 5×10^3 cells/well, and allowed to adhere overnight. Test compounds were added to culture medium at the indicated concentrations, and plates incubated in the above conditions for 24 hours. Following this incubation period, compounds and media were removed, and replaced with fresh culture medium. Cells were then grown for a further 72 hours before assay using sulforhodamine B (SRB; Sigma, St. Louis, Mo.) as previously described. Briefly, the culture medium was removed from the 96-well microtitre plates and the plates washed twice with phosphate buffered saline (PBS), before the cells were fixed with methylated spirits for 15 minutes. The plates were then rinsed with tap water and the fixed cells stained with 50 μL/well of SRB solution (0.4% sulforhodamine B (w/v) in 1% (v/v) acetic acid) over a period of 1 hour. The SRB solution was then removed from the wells and the plates rapidly washed two times with 1% (v/v) acetic acid. Protein bound dye was then solubilised with the addition of 100 μL of 10 mM unbuffered Tris, and incubated for 15 min at 25° C. Plates were then read at 564 nm on a VERSA max tunable microplate reader (Molecular Devices, Sunnyvale, Calif.).

[2] = system: PC-3 cells; experiment: Cell survival assay (SRB); details: PC-3; read-out: Cytoselectivities (nM) PC-3
Protocol: as §1, §2

[3] = system: SK-MEL-5 cells; experiment: Cell survival assay (SRB); details: SK-MEL-5; read-out: Cytoselectivities (nM) SK-MEL-5
Protocol: as §1, §2

[4] = system: A549 cells; experiment: Cell survival assay (SRB); details: A549 (lung); read-out: Cytoselectivities (nM) A549
Protocol: as §1, §2

[5] = system: HT29 cells; experiment: Cell survival assay (SRB); details: HT29 (colon); read-out: Cytoselectivities (nM) HT29
Protocol: as §1, §2

[6] = system: T-47D cells; experiment: Cell survival assay (SRB); details: T-47D; read-out: Cytoselectivities (nM) T-47D
Protocol: as §1, §2

[7] = system: HOP62 cells; experiment: Cell survival assay (SRB); details: HOP62 (lung); read-out: Cytoselectivities (nM) HOP62
Protocol: as §1, §2

[8] = system: MM96L melanoma cells; experiment: Cell survival assay (clonogenic survival, SRB); details: MM96L, Table 12; read-out: Cytoselectivities (nM) MM96L
Method in brief: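 Cells (5×10^3/well, RPMI 1640 with 10% FCS) treated 24 h with compound at 0.01-10 μg/mL, then washed and grown 72 h drug-free at 37 °C, 5% CO2. Survival read by SRB staining after methylated-spirit fixation, absorbance 564 nm.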

[9] = system: DU145 prostate cancer cells; experiment: Cell survival assay (SRB); details: DU145 (prostate); read-out: Cytoselectivities (nM) DU145
Protocol: as §1, §2
(§3) For comparison their results are also shown for MM96L and NFF cell lines.

[10] = system: MCF-7 breast cancer cells; experiment: Cell survival assay (SRB); details: MCF-7 (breast); read-out: Cytoselectivities (nM) MCF-7
Protocol: as §1, §2, §3

[11] = system: SkMel28 melanoma cells; experiment: Cell survival assay (SRB); details: SK-MEL-28 (melanoma); read-out: Cytoselectivities (nM) SK-MEL-28
Protocol: as §1, §2, §3

[12] = system: JAM ovarian cancer cells; experiment: Cell survival assay (SRB); details: JAM; read-out: Cytoselectivities (nM) JAM
Protocol: as §1, §2, §3

[13] = system: CI-80-13S ovarian cancer cells; experiment: Cell survival assay (SRB); details: CI80-13S; read-out: Cytoselectivities (nM) CI80-13S
Protocol: as §1, §2, §3

SMILES	IC50 [1] [nM]	IC50 [2] [nM]	IC50 [3] [nM]	IC50 [4] [nM]	IC50 [5] [nM]	IC50 [6] [nM]	IC50 [7] [nM]	IC50 [8] [nM]	IC50 [9] [nM]	IC50 [10] [nM]	IC50 [11] [nM]	IC50 [12] [nM]	IC50 [13] [nM]
CN(C)c1ccc(C(=O)N[C@H](CCCCCC(=O)NO)C(=O)Nc2cccc3cccnc23)cc1 [126 R]	188	387	44	191	199	63	147	38	52	40	57	251	43
O=C(CCCCC[C@@H](NC(=O)c1cc2ccccc2[nH]1)C(=O)Nc1cccc2cccnc12)NO [132 R]	180	148	23	121	238	42	63	18	33	42	43	211	27
O=C(/C=C/c1ccccc1)N[C@H](CCCCCC(=O)NO)C(=O)Nc1cccc2cccnc12 [146 R]	152	543	66	196	272	99	133	45	63	51	87	163	91
O=C(CCCCC[C@@H](NC(=O)OCc1ccccc1)C(=O)Nc1cccc2cccnc12)NO [148 R]	46	269	20	104	139	51	65	22	39	29	43	65	29
O=C(CCCCC[C@@H](NC(=O)c1ccc(Br)cc1)C(=O)Nc1ccc(-c2ccccc2)cc1)NO [161 R]	18600	18600	18600	18600	18600	18600	18600	18600	18600	13000	18600	18600	18600
